We go through 19 compounds from patent publication US20210221784A1, “COMPOUNDS AND COMPOSITIONS FOR THE TREATMENT OF PAIN” (Université de Strasbourg, priority 2018, published 2021).

Test [1] relates to C57BF6/N male mice. Put plainly: Morphine-induced hyperalgesia and tolerance, tail immersion test. In kind it is in vivo.
Test [2] concerns C57BF6/N male mice. Put plainly: Incisional pain model, Von Frey test. In kind it is in vivo. The note with it: morphine 2.5 mg/kg sc. alone or 1j 5 mg/kg po alone; FIG. 3B.
Test [3] relates to C57BF6/N male mice. Put plainly: Neuropathic pain model (chronic constriction injury), Von Frey test. The format is in vivo. The note with it: morphine 3 mg/kg sc. alone or 1j 5 mg/kg p.o. alone; FIG. 4B.
The subject of test [4] is NPFF receptor. The conditions noted are these: Simonin et al., PNAS (2006); cited from earlier work.
Test [5] deals with rat. The conditions noted are these: repeated administration of opiate analgesics; cited from earlier work.
In test [6] the target is T1, hNPFFR1 (Homo sapiens, UniProt Q9GZQ6).
T1 construct: expressed in transfected cells; membranes
Put plainly: Radioligand binding competition, membranes from CHO cells expressing hNPFFR1. The conditions noted are these: 0.015 nM [D-Tyr1[125I], N-MePhe3]-NPFF, 1 hr at 25° C., read-out: NPFF1-R Ki. The essentials:
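CHO membranes (5–10 μg protein) stably expressing hNPFFR1 or hNPFFR2 incubated 1 h at 25 °C with 0.015 nM [D-Tyr1[125I], N-MePhe3]-NPFF in HEPES pH 7.4 with Ca2+, Mg2+, 0.1% BSA. Non-specific binding defined with 10 μM RFRP-3; bound radioactivity counted after GF/B filtration.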

Test [7] addresses T2, hNPFFR2 (Homo sapiens, UniProt Q9Y5X5).
T2 construct: expressed in transfected cells; membranes
Put plainly: Radioligand binding competition, membranes from CHO cells expressing hNPFFR2. The note with it: 0.015 nM [D-Tyr1[125I], N-MePhe3]-NPFF, 1 hr at 25° C., read-out: NPFF2-R Ki. Here is the method:
Competition experiments with membranes from CHO cells stably expressing hNPFFR1 and hNPFFR2 were performed essentially as described in Elhabazi, K., et al. Neuropharmacology, 2013. 75C, 164-171., Briefly, hNPFFR1 or hNPFFR2 membranes (5 to 10 μg of proteins) were incubated (1 hr at 25° C.; 0.25 mL total volume) with 0.015 nM [D-Tyr1[125I], N-MePhe3]-NPFF (Hartmann Analytic GmbH) in 50 mM HEPES (pH 7.4), 1 mM CaCl2, 1 mM MgCl2 and 0.1% bovine serum albumin. Non-specific binding was determined in the presence of 10 μM RFRP-3. Incubation was terminated by rapid filtration through a 96-well GF/B unifilter apparatus (Perkin Elmer Life and Analytical Sciences, Courtaboeuf, France). Unifilters were washed five times with binding buffer, then dried for 1 h at 65° C. After addition of 40 μL scintillation cocktail (Microscint-O, Perkin Elmer) per well, bound radioactivity was determined on a TopCount scintillation counter (Perkin Elmer).

Test [8] deals with T3, human NPFFR1 (hNPFFR1) receptor (Homo sapiens, UniProt Q9GZQ6).
T3 construct: expressed in transfected cells; host or cells: HEK-293 T cells, transient co-transfection
Put plainly: Human NPFFR1 evaluation using BRET biosensors in HEK-293 T cells. The format is cell-based. The note with it: hNPFFR1 in HEK-293 T cells, stimulated by EC80 RFRP-3, read-out: IC50 of antagonist activity. The method in brief: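 HEK-293 T cells transiently co-expressing hNPFFR1, GαoB and a Gi-effector BRET biosensor pair; agonist read after 10 min compound alone, then antagonism after EC80 RFRP-3 for 10 min. IC50 from 20-point curves over 6 logs, duplicates in two independent experiments.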
In general terms: BRET reads energy transfer from a luciferase to a nearby fluorophore.

Test [9] has as its target T4, hNPFF1R (Homo sapiens, UniProt Q9GZQ6).
T4 construct: expressed in transfected cells
The test can be described thus: Glo Sensor cAMP assay in HEK-293 expressing hNPFF1R. In kind it is cell-based. The conditions noted are these: HEK-293 cells expressing hNPFF1R; FIG. 7. The procedure:
The functional characterization of the selected compounds was performed by Glo Sensor cAMP kinetic assay, a validated approach for measuring Gαi/s activation by GPCRs (DiRaddo et al., 2014; Gilissen et al., 2015). HEK-Glo cells expressing either NPFF1 or NPFF2 receptors were suspended (10^6 cells per mF) in physiological Hepes buffer (10 mM HEPES, 0.4 mM NaH2PO4, 137.5 mM NaCl, 1.25 mM MgCl2, 1.25 mM CaCl2, 6 mM KCl, 10 mM glucose and 1 mg/mF bovine serum albumin, pH 7.4) supplemented with 1 mM D-Fuciferine. After equilibration for 2 h at 25° C., luminescence levels were recorded in real time in 96-well plates using a Flexstation^R 3 (Molecular Devices, Sunnyvale Calif., USA). Non-specific effect of the different compounds was evaluated in HEK-Glo cells without any recombinant human RF-amide receptors. To test the agonist activity on NPFF1R and NPFF2R, compounds were injected 15 minutes before addition of forskolin (0.5 μM) and readings were pursued for 90 minutes. To evaluate their antagonist properties, compounds were pre-incubated with cells for 15 minutes before prototypical agonists for NPFF1R (RFRP-3) and NPFF2R (NPFF) receptors. According to their preferential coupling to Gi/o proteins, the stimulation of NPFF1R and NPFF2R by agonists was monitored as a dose-dependent reduction in steady-state luminescence levels, reflecting the inhibition of forskolin-induced cAMP accumulation. Experiments were performed at 25° C. in the presence of 0.5 mM IBMX to prevent the degradation of cAMP by phosphodiesterases.
For orientation: Cyclic AMP is a second messenger, typically raised through Gs and lowered through Gi signalling.

Test [10] has as its system C57BF6/N male mice. Put plainly: Fentanyl-induced hyperalgesia, tail immersion test. The format is in vivo. The note with it: FIG. 6B.

T3 sequence (Q9GZQ6 whole entry): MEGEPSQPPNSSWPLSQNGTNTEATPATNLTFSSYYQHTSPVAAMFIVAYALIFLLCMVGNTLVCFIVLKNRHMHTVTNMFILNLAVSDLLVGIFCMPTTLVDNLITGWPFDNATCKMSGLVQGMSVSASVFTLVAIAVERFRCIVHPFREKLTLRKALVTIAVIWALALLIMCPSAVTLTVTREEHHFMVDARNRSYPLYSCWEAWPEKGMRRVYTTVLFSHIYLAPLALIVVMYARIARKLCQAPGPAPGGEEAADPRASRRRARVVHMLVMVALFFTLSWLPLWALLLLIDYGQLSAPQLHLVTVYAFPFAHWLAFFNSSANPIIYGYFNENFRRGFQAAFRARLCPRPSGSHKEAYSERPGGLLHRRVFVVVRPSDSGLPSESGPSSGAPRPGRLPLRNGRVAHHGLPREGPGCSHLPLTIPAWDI
T1 sequence (Q9GZQ6 whole entry): as above
T2 sequence (Q9Y5X5 whole entry): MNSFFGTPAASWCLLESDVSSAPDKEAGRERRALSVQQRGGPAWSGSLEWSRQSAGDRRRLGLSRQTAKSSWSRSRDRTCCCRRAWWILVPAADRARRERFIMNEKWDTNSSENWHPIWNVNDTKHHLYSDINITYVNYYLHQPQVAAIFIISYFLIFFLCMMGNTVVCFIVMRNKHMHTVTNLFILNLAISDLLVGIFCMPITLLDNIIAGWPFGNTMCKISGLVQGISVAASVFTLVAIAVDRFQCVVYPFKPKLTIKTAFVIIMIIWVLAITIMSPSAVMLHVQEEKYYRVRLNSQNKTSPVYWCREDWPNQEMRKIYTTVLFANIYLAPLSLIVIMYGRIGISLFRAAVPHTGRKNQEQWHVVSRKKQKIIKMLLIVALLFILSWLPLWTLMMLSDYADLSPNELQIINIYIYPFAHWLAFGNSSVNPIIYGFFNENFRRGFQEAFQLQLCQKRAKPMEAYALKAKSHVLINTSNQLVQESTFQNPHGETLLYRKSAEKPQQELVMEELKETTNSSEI
T4 sequence (Q9GZQ6 whole entry): as the sequence (Q9GZQ6 whole entry) above

Turning to `CN1CC[C@]23c4c5ccc(O)c4O[C@H]2[C@@H](O)C=C[C@H]3[C@H]1C5.Cl` [morphine, Morphine hydrochloride, reference compound], the “Hyperalgesia index (HI) d1 to d7” value in [1] (daily morphine 10 mg/kg s.c., 1j 5 mg/kg oral or vehicle before morphine, FIG. 2B) was −16.2±2. In addition, in test [1] (morphine 5 mg/kg s.c. alone or combined with 1j 5 mg/kg p.o., after chronic morphine, FIG. 2C), the “peak of analgesia at day 8” value was determined as 9±0.8. Further, the “peak of analgesia at day 0” value in [1] (morphine 5 mg/kg s.c. alone or combined with 1j 5 mg/kg p.o., FIG. 2C) was 17±0.8. Also, the “mechanical allodynia after paw incision (allodynia index d1-d6), drug alone” value in test [2] is reported as “failed to prevent significantly the mechanical allodynia”. The “mechanical allodynia after CCI (allodynia index d11-d21), drug alone” value in [3] is listed as “slightly but not significantly prevented the mechanical allodynia”.
Consider “N^α-adamantan-1-yl-L-Arg-L-Phe-NH2 acetate [RF9]”, for which the “NPFF receptor antagonist potency” value in test [4] is listed as “first nanomolar NPFF receptor antagonist”. For the same compound, the “antihyperalgesic activity in vivo” value in test [5] is on record as “reversing hyperalgesia induced by the repeated administration of opiate analgesics”.
As usually defined, the Ki is a measure of affinity in units of concentration, obtained from inhibition or displacement. What is called IC50 is the midpoint of a concentration-inhibition curve. Turning to `CCNc1nc(N)ccc1-c1cccc(Cl)c1Cl` [Compound 5b, 3-(2,3-dichlorophenyl)-N2-ethylpyridine-2,6-diamine], the Ki is 79.2 nM in test [6] and 2200 nM in test [7]. Further, in test [8], the IC50 lay in the range of 500 to 1000 nM.
Regarding `Nc1ccc(Cc2ccc(F)cc2)c(N)n1` [Compound 10b, 3-(4-fluorobenzyl)pyridine-2,6-diamine], the inhibitory constant (Ki) in test [6] amounted to 122 nM; in [7] it was 4200 nM. Further, the IC50 in [8] is above 1000 nM.
On the same counts, the results for `COCc1ccccc1-c1ccc(N)nc1N` [Compound 1g, 3-(2-(methoxymethyl)phenyl) pyridine-2,6-diamine] are 58 nM, 1200 nM and 500 to 1000 nM.
Consider `Nc1ccc(-c2ccccc2OC2CCCC2)c(N)n1` [Compound 2i, 3-(2-(cyclopentyloxy)phenyl)pyridine-2,6-diamine], for which the values for the Ki in [6] and in test [7] were 4 nM and 280 nM, respectively. Moreover, the IC50 in test [8] fell in the range of 100 to 500 nM.
For `Nc1ccc(Cc2ccccc2Cl)c(N)n1` [Compound 10e, 3-(2-chlorobenzyl)pyridine-2,6-diamine], in that order: 3.7 nM, 450 nM and 100 to 500 nM.
For `Nc1ccc(-c2ccc(Cl)c(Cl)c2)c(N)n1` [Compound 1n, 3-(3,4-dichlorophenyl) pyridine-2,6-diamine], in that order: 313 nM, 2560 nM and above 1000 nM.
Turning to `Cc1ccccc1-c1ccc(N)nc1N` [Compound 1c, 3-(o-tolyl)pyridine-2,6-diamine], the results for the inhibition constant (Ki) in test [6] and in [7] were 23 nM and 30000 nM, respectively. Also, in test [9], the “antagonist activity: effect on dose response curve of NPVF (RFRP-3), forskolin-stimulated cAMP” value is listed as “antagonist activity similar as compound 1j”. Also, in [8], the half-maximal inhibitory concentration (IC50) is 100 to 500 nM. Also, the “fentanyl hyperalgesia (hyperalgesia index d1 to d4)” value in [10] (0.2 mg/kg sc. 20 min before fentanyl 4×60 μg/kg sc.) and in [10] (1 mg/kg sc. 20 min before fentanyl 4×60 μg/kg sc.) was “prevented fentanyl hyperalgesia” each time.
In the case of `Nc1ccc(-c2cc(Cl)ccc2Cl)c(N)n1` [Compound 1l, 3-(2,5-dichlorophenyl) pyridine-2,6-diamine], the Ki stood at 335 nM in [6] and 26700 nM in [7]. Also, in [8], the IC50 lay in the range of 100 to 500 nM.
For `COc1ccccc1-c1ccc(N)nc1N` [Compound 2b, 3-(2-methoxyphenyl) pyridine-2,6-diamine], in that order: 13.8 nM, 3000 nM and 100 to 500 nM.
On the same counts, the results for `CC(C)c1ccccc1-c1ccc(N)nc1N` [Compound 1e, 3-(2-isopropylphenyl) pyridine-2,6-diamine] are 8 nM, 980 nM and 100 to 500 nM.
As for `Nc1ccc(-c2ccc(Cl)cc2Cl)c(N)n1` [Compound 1k, 3-(2,4-dichlorophenyl) pyridine-2,6-diamine], the inhibitory constant (Ki) in [6] turned out to be 28 nM; in [7] it was 1180 nM. Further, the half-inhibitory concentration (IC50) in test [8] lay in the range of 100 to 500 nM.
On the same counts, the results for `Nc1ccc(Cc2ccc(Cl)cc2)c(N)n1` [Compound 10c, 3-(4-chlorobenzyl)pyridine-2,6-diamine] are 56 nM, 2700 nM and 500 to 1000 nM.
For `Nc1ccc(-c2cccc(Cl)c2Cl)cn1` [Compound 6a, 5-(2,3-dichlorophenyl)pyridin-2-amine], in that order: 577 nM, 4200 nM and above 1000 nM.
For `Cc1ccccc1-c1c(C)cc(N)nc1N` [Compound 8b, 4-methyl-3-(o-tolyl)pyridine-2,6-diamine], in that order: 183 nM, 4600 nM and above 1000 nM.
Take `CCc1nc(N)ccc1-c1ccccc1OC` [Compound 6d, 6-ethyl-5-(2-methoxyphenyl)pyridin-2-amine]: the values for the inhibitory constant (Ki) in test [6] and in test [7] were 15.2 nM and 960 nM, respectively. For the same compound, the half-maximal inhibitory concentration (IC50) in [8] lay within 100 to 500 nM.
For `Cc1nc(N)ccc1-c1cccc(Cl)c1Cl` [Compound 6b, 5-(2,3-dichlorophenyl)-6-methylpyridin-2-amine], in that order: 81.4 nM, 2000 nM and 500 to 1000 nM.
`Nc1ccc(-c2ccccc2Cl)c(N)n1` [Compound 1b, 3-(2-chlorophenyl)pyridine-2,6-diamine]: the results for the Ki in test [6] and in [7] were 39 nM and 1300 nM, respectively. Moreover, the half-inhibitory concentration (IC50) in test [8] fell in the range of 500 to 1000 nM.
